# Assay results as given in patent US9603804B2, “Solid pharmaceutical composition” (KYORIN PHARMACEUTICAL CO., LTD., priority 2013, dated 2017).
# Assay: pH measurement of acidic/basic substances (2.5% liquid, pH meter)
# Assay type: physicochemical
# Conditions: 50 mg substance dissolved or suspended in 1,950 μL of water (concentration: 2.5%)
row,Compound,pH
1,"N[C@@H](CC(=O)O)C(=O)O [L-ASPARTIC ACID, L-aspartic acid]",2.8
2,"O=C(O)/C=C/C(=O)O [FUMARIC ACID, fumaric acid]",2.2
3,"O=C([O-])CC(O)(CC(=O)[O-])C(=O)[O-].[Na+].[Na+].[Na+] [SODIUM CITRATE, sodium citrate]",8.2
4,"Cl.N[C@@H](CCC(=O)O)C(=O)O [L-GLUTAMIC ACID HYDROCHLORIDE, L-glutamic acid hydrochloride]",1.5
5,"O=C([O-])CC(O)(CC(=O)[O-])C(=O)O.[Na+].[Na+] [DIBASIC SODIUM CITRATE, dibasic sodium citrate]",5.1
6,"O=C(O)CC(O)C(=O)O (racemic) [DL-MALIC ACID, DL-malic acid]",2.1
7,"O=C(O)C(O)C(O)C(=O)O [L-(+)TARTARIC ACID, L-(+)tartaric acid]",1.9
8,"O=C([O-])CC(O)(CC(=O)O)C(=O)O.[Na+] [MONOBASIC SODIUM CITRATE, monobasic sodium citrate]",3.7
9,"O=C(O)CC(O)(CC(=O)O)C(=O)O [ANHYDROUS CITRIC ACID, citric acid anhydride]",2.1
10,"N[C@@H](CCC(=O)O)C(=O)O [L-GLUTAMIC ACID, L-glutamic acid]",3.0

# Assay: Solubility in water at 20° C. of acidic substances
# Assay type: physicochemical
# Conditions: MW={C/(100+C)}×100, C = mass (g) of solute dissolved in 100 g of water
# Method: The “solubility in water” herein is a value obtained by calculation using the following equation (A) on the basis of the mass (g) of a solute that is dissolved in 100 g of water. MW={C/(100+C)}×100 (A) In the equation (A), MW represents the solubility (%) in water and C represents the mass (g) of a solute that is dissolved in 100 g of water.
row,Compound,SOLUBILITY IN WATER (20° C.) [%]
1,"O=C(O)/C=C/C(=O)O [FUMARIC ACID, fumaric acid]",0.63
2,"O=C(O)CC(O)C(=O)O (racemic) [DL-MALIC ACID, DL-malic acid]",36.0
